Experimental data from US20040197407A1, “Methods and dosage forms with modified layer geometry” (priority 2003, published 2004).
Counter-ions that a name gives are not always drawn.

Assays:
[1] = cited from earlier work
[2] = FIG. 6
Text: FIG. 6 illustrates blood plasma concentrations at various times achieved through various means of delivery. This figure illustrates the time necessary to achieve a particular blood plasma concentration.

[3] = in vivo; cited from earlier work
[4] = in vivo; cited from earlier work; remark: listed apart in the source

CN(C)CCC=C1c2ccccc2C=Cc2ccccc21 [Cyclobenzaprine hydrochloride, cyclobenzaprine hydrochloride]
solubility in alcohol ([1]; alcohol): freely soluble | solubility in hydrocarbon solvents ([1]; hydrocarbon solvents): insoluble | solubility in isopropanol ([1]; isopropanol): sparingly soluble | solubility in water ([1]; water): freely soluble

CN(C)CCC=C1c2ccccc2C=Cc2ccccc21 [cyclobenzaprine]
colonic absorption [2]: colonic absorption | half-life [3]: 24 to 72 h | reported side effects [4]: sedation and dry mouth
